Values after ≈ are worked out from the molar mass of the structure shown.
experiment: Ichthyotoxicity against Oryzias latipes after 24 hrs; format: organism-based; details: in vivo, read-out: TLm

Question: For `CC(C)=CCC/C(C)=C/C=C/C(C)=C/[C@@H]1C[C@@]2(C(O)O1)[C@H](CCCO)/C(=C(/C)C=O)CC[C@]2(C)O` (some centres not stated), which LC50 at 24 h is on record?
Answer: The LC50 at 24 h was 5.5 µg/mL (≈ 11.3 µM).

Question: With `C=C1CC/C=C(\C)C(=O)[C@H](O)[C@@H]2[C@@H]1CC2(C)C` [BUDDLEDIN B] as the compound, how does the LC50 at 24 h read?
Answer: The LC50 at 24 h was 1.2 µg/mL (≈ 5.12 µM).

Question: For `CC(C)=CCC/C(C)=C/C=C/C(C)=C/[C@H]1C[C@@]23[C@H](OCCC[C@@H]2/C(=C(/C)C=O)CC[C@]3(C)O)O1` [EPIANHYDROBELACHINAL], which LC50 at 24 h is on record?
Answer: The LC50 at 24 h was over 10 µg/mL.

Question: For `CC(C)=CCC/C(C)=C/C=C/C(C)=C/[C@H]1C[C@@]2(C(O)O1)[C@H](CCCO)/C(=C(/C)C=O)CC[C@]2(C)O` (some centres not stated) [BELACHINAL], which LC50 at 24 h is on record?
Answer: Its LC50 at 24 h is 2.8 µg/mL (≈ 5.75 µM).

Question: For `CCCCCCCCCCCCCC(=O)OCCC[C@@H]1/C(=C(/C)C=O)CC[C@](C)(O)[C@@]1(C)CC/C=C(\C)[C@@H](C/C=C(\C)CCC=C(C)C)OC(C)=O`, which LC50 at 24 h is on record?
Answer: Its LC50 at 24 h is over 10 µg/mL.

Question: Which LC50 at 24 h does the source give for `CC(C)=CCC/C(C)=C/C=C/C(C)=C/[C@@H]1C[C@@]23[C@H](OCCC[C@@H]2/C(=C(/C)C=O)CC[C@]3(C)O)O1` [ANHYDROBELACHINAL] here?
Answer: Its LC50 at 24 h is over 10 µg/mL.

Question: For `CC(C)=CCC/C(C)=C/C[C@@H](O)/C(C)=C/CC[C@@]1(C)[C@H](CCCO)/C(=C(/C)C=O)CC[C@]1(C)O` [ISOIRIDOGERMANAL], which LC50 at 24 h is on record?
Answer: Its LC50 at 24 h is 9.3 µg/mL (≈ 19.6 µM).

Question: For `CCCCCCCCCC(=O)OCCC[C@@H]1/C(=C(/C)C=O)CC[C@](C)(O)[C@@]1(C)CC/C=C(\C)[C@@H](C/C=C(\C)CCC=C(C)C)OC(C)=O`, which LC50 at 24 h is on record?
Answer: The LC50 at 24 h was over 30 µg/mL.

Question: For `CC(=O)OCCC[C@@H]1/C(=C(/C)C=O)CC[C@](C)(O)[C@@]1(C)CC/C=C(\C)[C@@H](C/C=C(\C)CCC=C(C)C)OC(C)=O`, which LC50 at 24 h is on record?
Answer: Its LC50 at 24 h is over 10 µg/mL.

Question: With `C=C(/C=C/C=C(\C)CCC=C(C)C)[C@@H]1CC[C@]2([C@H](CCCO)/C(=C(/C)C=O)CC[C@]2(C)O)[C@@H]1O` as the compound, how does the LC50 at 24 h read?
Answer: Its LC50 at 24 h is 1.6 µg/mL (≈ 3.4 µM).

Question: With `CC(=O)OCCC[C@@H]1/C(=C(/C)C=O)CC[C@](C)(O)[C@@]1(C)CC/C=C(\C)[C@H](O)C/C=C(\C)CCC=C(C)C` as the compound, how does the LC50 at 24 h read?
Answer: Its LC50 at 24 h is 0.8 µg/mL (≈ 1.55 µM).

Question: With `CCCCCCCCCCCCCC(=O)OCCC[C@@H]1/C(=C(/C)C=O)CC[C@](C)(O)[C@@]1(C)CC/C=C(\C)[C@H](O)C/C=C(\C)CCC=C(C)C` [IRISTECTORENE B] as the compound, how does the LC50 at 24 h read?
Answer: Its LC50 at 24 h is 3.5 µg/mL (≈ 5.11 µM).

Source: ChEMBL document CHEMBL1157990, “Iridal-type triterpenoids with ichthyotoxic activity from belamcanda chinensis” (J Nat Prod, 1999)
